# Data as given in PMC7048748, “Anxiolytic Drug FGIN-1-27 Ameliorates Autoimmunity by Metabolic Reprogramming of Pathogenic Th17 Cells” (Scientific Reports, 2020).
# Assays:
# Assay type in all cases: cell-based, mouse
# Th17 cells [1] = test: Th17 differentiation assay, intracellular IL-17 by flow cytometry
# Procedure: Because of differential TSPO expression in Th17 cells (Fig. S1a) and up-regulation of TSPO in neuroinflammation, we tested whether TSPO ligands, such as FGIN-1-27, can affect Th17 differentiation. In this assay, purified CD4^+ T cells from mouse spleens and lymph nodes were cultured under Th17 polarizing conditions. […] FGIN-1-27 treatment had no effect on protein or transcript levels of RORγt, the Th17 lineage-determining transcription factor.
# (§1) Figure 1 FGIN-1-27 Inhibits Th17 Differentiation. Naïve CD4 T cells from spleens and lymph nodes of C57BL/6 mice were differentiated under Th17 polarization conditions and were treated with DMSO (control) or FGIN-1-27. (a) Dose response plot showing effect of FGIN-1-27 on intracellular IL-17 and viability on day 4 post activation quantified by flow cytometry. Data is normalized against DMSO (100%). […] (b) Dot plots showing DMSO or FGIN-1-27 treated cells stained for surface CD4, CD44, intracellular IL-17 and intranuclear RORγt. (c) Transcript levels for the indicated genes after 24 hours of treatment with DMSO or FGIN-1-27 quantified by qPCR. Data was normalized to a housekeeping gene, β-actin. Data are representative of at least 3 independent experiments and the error bars indicate standard deviation.
# Single cell suspensions were prepared from spleens and lymph nodes of mice by mechanical disruption. Red blood cells were lysed by ammonium chloride followed by CD4^+ T cell purification using either CD4 microbeads (Miltenyi Biotec) or sorting for naïve CD4^+ T cells (FACS Aria). 250,000 cells/well in a 48 well plate were polarized into Th17 cells using Th17 differentiation cocktail: IFNγ, IL-4, IL-12 neutralizing antibodies (10 μg/ml) and 10 ng/ml each of IL-6, IL-1b, IL-21 and TGF-β (0.5 ng/ml). Cells were treated with FGIN-1-27 (Tocris Bioscience) or DMSO at 18 hour and 48 hours post cell plating. On day 4 of culture, cells were re-stimulated with PMA-ionomycin in the presence of brefeldin A. Cells were subsequently stained with viability dye and surface stained for CD44, CD4 followed by permeabilization using cytofix/cytoperm (BD biosciences) and stained for intracellular IL-17. RORγt intranuclear staining was performed after fixation and permeabilization with a Foxp3/Transcription Factor Staining kit (eBioscience). Cells were acquired on BD Fortessa followed by analysis using Flowjo (Tree star Inc).
# Th17 cells [2] = test: Transcript levels by qPCR in Th17 cells
# Procedure: as §1
# Figure 5 FGIN-1-27 induces amino acid starvation response (AAR). (a) MA-plot showing shrunken log2 fold-changes of detected genes between the DMSO and FGIN-1-27 RNA-seq samples, ranked by average normalized count. Red dots indicate differentially expressed genes at adjusted p-value <0.05. (b) Transcript levels for the indicated genes after 24 hours of treatment with DMSO or FGIN-1-27 quantified by qPCR. The error bars represent SD. (c) Western blot analysis for phosphorylated eIF2α and ATF4 24 hours after treatment with DMSO or FGIN-1-27 (5 and 10 µM). Data are representative of 3 independent experiments. (d) Amino acids in Th17 cells measured 72 hours after treatment with FGIN-1-27. The error bars represent SD. (e) ROS was measured using cell permeant reagent 2′,7′ –dichlorofluorescin diacetate (DCFDA) at 24 hours following treatment with FGIN-1-27. Filled grey histogram-DMSO, dotted line-FGIN-1-27 (10 µM) and dashed line indicates FGIN-1-27 (5 µM). […]
# Total RNA extractions were performed with the RNAeasy kit (Qiagen) followed by cDNA synthesis using High capacity cDNA Reverse Transcription kit (Applied Biosystems). Quantitative PCR was performed on a ViiA 7 (Applied Biosystems) using SYBR Fast qPCR master mix (Kapa Biosystems). […]
# Th17 cells [3] = test: Whole-transcriptome RNA sequencing of treated CD4+ T cells
# Procedure: Total RNA extractions for RNA-seq were performed using the mirVana kit (Applied Biosystems). RNA concentration was measured using the Qubit RNA broad range assay in the Qubit Flurometer (Invitrogen) and RNA integrity was determined with Eukaryote Total RNA Nano Series II ChIP on a 2100 Bioanalyzer (Agilent). RNA-seq libraries were prepared using TruSeq RNA sample preparation kit (Illumina). In brief, oligo-dT purified mRNA was fragmented and subjected to first and second strand cDNA synthesis. cDNA fragments were blunt ended, ligated to Illumina adaptors and PCR amplified to enrich for the fragments ligated to adaptors. The resulting cDNA libraries were verified and quantified on Agilent Bioanalyzer and single-end 96 cycle sequencing was conducted (Illumina).
# Reads were aligned to the mm10 genome and the GRCm38 v87 transcriptome with STAR v2.5.2a using default parameters and output tracks normalized by RPM (–outWigNorm RPM). RSEM v1.3 was used to calculate gene counts and TPMs on the transcriptome-aligned reads as previously described[37]. Differential expression analysis was performed in R v3.5.2, using DESeq. 2 v1.22.2. […] Heatmaps were generated with the R package, heatmap. Integrative Genomics Viewer v2.4.19 was used for visualization of normalized bigwig tracks.
# [4] = system: reactive oxygen species (ROS); test: Intracellular ROS with DCFDA; settings: 24-hour post treatment, 5 and 10 µM
# Procedure: Figure 5 FGIN-1-27 induces amino acid starvation response (AAR). (a) MA-plot showing shrunken log2 fold-changes of detected genes between the DMSO and FGIN-1-27 RNA-seq samples, ranked by average normalized count. […] (b) Transcript levels for the indicated genes after 24 hours of treatment with DMSO or FGIN-1-27 quantified by qPCR. The error bars represent SD. (c) Western blot analysis for phosphorylated eIF2α and ATF4 24 hours after treatment with DMSO or FGIN-1-27 (5 and 10 μM). Data are representative of 3 independent experiments. (d) Amino acids in Th17 cells measured 72 hours after treatment with FGIN-1-27. The error bars represent SD. (e) ROS was measured using cell permeant reagent 2',7' -dichlorofluorescin diacetate (DCFDA) at 24 hours following treatment with FGIN-1-27. Filled grey histogram-DMSO, dotted line-FGIN-1-27 (10 μM) and dashed line indicates FGIN-1-27 (5 μM). (f) Dose response plot showing effect of FGIN-1-27 on intracellular IL-17 after pre-treatment with NAC (1 μM). Data are normalized using DMSO treated cells as 100% and the error bars represent SD. Increased amino acid synthesis and transport is characteristic of the amino acid starvation response (AAR)[20]. […] Induction of ATF4 can be an indication of oxidative stress and we measured reactive oxygen species (ROS) using the cell permeant reagent 2',7' -dichlorofluorescin diacetate (DCFDA).
smiles,measurement,setting,value
"CCCCCCN(CCCCCC)C(=O)Cc1c(-c2ccc(F)cc2)[nH]c2ccccc12 [FGIN-1-27, N, N-di-n-hexyl 2-(4-fluorophenyl) indole-3-acetamide]",protein or transcript levels of RORγt,Th17 cells [1],no effect
same,proliferation (CFSE dilution),Th17 cells [1]; 72 hours post treatment,proliferated to the same extent as DMSO treated cells
same,IC50,"Th17 cells [1]; Mus musculus, 96 h, day 4 post activation, normalized against DMSO (100%)",4.85 µM
same,viability,Th17 cells [1]; Th17 polarizing conditions,without compromising viability
same,IL-17 producing cells abolished,Th17 cells [1]; compared to DMSO treated cultures,85%
same,"CD4 / CD44 dot plot, percent of cells","Th17 cells [1]; treated cells, Fig. 1b",98%
same,"IL-17 / RORγt dot plot, percent of cells","Th17 cells [1]; treated cells, Fig. 1b",8.0%
same,ATF4 target genes Asns and Gpt2,Th17 cells [2]; 24 hours,induced
same,"expression of RORγt target genes (Il17a, Il17f, Il23r, Ltb4r1, Ccr6) and Stat3","Th17 cells [2]; 24 hours of treatment, p < 0.0001",significantly downregulated
same,CD5L transcript,Th17 cells [2]; 72 hours post treatment,substantial up-regulation
same,"genes encoding glycolytic enzymes (hexokinase, phosphofructokinase, pyruvate kinase)",Th17 cells [3]; 24 hours,significantly down-regulated
same,differentially expressed genes,"Th17 cells [3]; vs DMSO, FDR < 0.05, 24 hours",587
same,intracellular ROS levels,[4],dose dependent increase
